This passage reports Drug uptake results from ChEMBL document CHEMBL2069247, “A highly sensitive fluorescent viscosity sensor” (Bioorg Med Chem Lett, 2012).

In data set [1] the test system is HeLa. In words: Drug uptake in human HeLa cells at 5 uM after 2 hrs by fluorescence microscopic analysis. It counts as ADME, cell-based.
The test system of data set [2] is HeLa. Put plainly: Drug uptake in human HeLa cells measured immediately. It counts as ADME, cell-based.

On to `Cn1ccc2ccc(-c3ccc4c(-c5ccccc5C(=O)O)c5ccc(=O)cc-5oc4c3)cc21`, for which the Drug uptake entry in data set [1] and in data set [2] was “Active” throughout.
